Measurements published in publication PMC4890880 (ACS infectious diseases, 2016).
Like-named read-outs stand apart in the source and are kept apart here.

Tests used:
[1] = system: Plasmodium berghei (Pb-Luc) exoerythrocytic-stage parasites; conditions: for normalized signal at concentration 0.000508053 / normalized signal at concentration 0.00152416 / normalized signal at concentration 0.00457247 / normalized signal at concentration 0.0137174 / normalized signal at concentration 0.0411523 / normalized signal at concentration 0.123457 / normalized signal at concentration 0.37037 / normalized signal at concentration 1.11111 / normalized signal at concentration 3.33333 / normalized signal at concentration 10: fraction of control; for IC50: read-out: PbLuc_IC50; for IC50 / PbLuc_max_inhibition (%): sheet 2nd round; for PbLuc_max_inhibition (%): maximal inhibition in dose response
HepG2-A16-CD81EGFP cells = conditions: sheet 2nd round; for IC50: read-out: Tox_IC50, HepG2 cytotoxicity; for Tox_max_inhibition (%): maximal inhibition in dose response
[2] = Pb-Luc exoerythrocytic stage, 10-point dose response, top concentration 10
[3] = second series of columns (replicate)
[4] = first series of dose-response columns
[5] = second series of dose-response columns

## C[C@H](CO)N1C[C@H](C)[C@H](CN(C)S(=O)(=O)c2ccc(F)cc2)OCCCC[C@H](C)Oc2ccc(N(C)C)cc2C1=O [BRD-K59130783-001-01-1]
[1]; first series of columns
  normalized signal at concentration 0.000508053: 0.8293
  normalized signal at concentration 0.00152416: 0.8148
  normalized signal at concentration 0.00457247: 0.8395
  normalized signal at concentration 0.0137174: 0.9506
  normalized signal at concentration 0.0411523: 0.8723
  normalized signal at concentration 0.123457: 1.0641
  normalized signal at concentration 0.37037: 0.9674
  normalized signal at concentration 1.11111: 0.9129
  normalized signal at concentration 3.33333: 0.9251
  normalized signal at concentration 10: 0.7483
[1]; [2]
  IC50: > 10 µM
[1]; [3]
  normalized signal at concentration 0.000508053: 1.007
  normalized signal at concentration 0.00152416: 0.9488
  normalized signal at concentration 0.00457247: 0.9241
  normalized signal at concentration 0.0137174: 0.9817
  normalized signal at concentration 0.0411523: 0.8684
  normalized signal at concentration 0.123457: 0.9044
  normalized signal at concentration 0.37037: 1.051
  normalized signal at concentration 1.11111: 0.8044
  normalized signal at concentration 3.33333: 0.946
  normalized signal at concentration 10: 0.5139
[1]
  PbLuc_max_inhibition (%): 49%
HepG2-A16-CD81EGFP cells
  IC50: > 10 µM
  Tox_max_inhibition (%): 7%

## CC(C)[C@H]1COCn2nncc2CCCC(=O)N1 [BRD-K14350179-001-01-1]
[1]; [4]
  normalized signal at concentration 10: 0.98
[1]; first series
  normalized signal at concentration 0.000508053: 0.82
  normalized signal at concentration 0.00152416: 0.73
  normalized signal at concentration 0.00457247: 0.94
  normalized signal at concentration 0.0137174: 0.81
  normalized signal at concentration 0.0411523: 0.80
  normalized signal at concentration 0.123457: 0.97
  normalized signal at concentration 0.37037: 0.84
  normalized signal at concentration 1.11111: 0.77
  normalized signal at concentration 3.33333: 0.76
[1]; Broad compounds, dose response
  IC50: > 10 µM
[1]; [5]
  normalized signal at concentration 10: 1.05
[1]; second series
  normalized signal at concentration 0.000508053: 0.94
  normalized signal at concentration 0.00152416: 1.04
  normalized signal at concentration 0.00457247: 1.06
  normalized signal at concentration 0.0137174: 0.87
  normalized signal at concentration 0.0411523: 1.07
  normalized signal at concentration 0.123457: 1.10
  normalized signal at concentration 0.37037: 1.01
  normalized signal at concentration 1.11111: 0.86
  normalized signal at concentration 3.33333: 0.89
[1]
  PbLuc_max_inhibition (%): 27%
HepG2-A16-CD81EGFP cells
  IC50: > 10 µM
  Tox_max_inhibition (%): 5.35%

## C[C@@H]1CN([C@@H](C)CO)C(=O)c2cccc(NC(=O)C3CC3)c2O[C@@H]1CN(C)C(=O)Nc1ccc(C(F)(F)F)cc1 [BRD-K19818397-001-01-8]
[1]; [4]
  normalized signal at concentration 10: 1.071
[1]; first series
  normalized signal at concentration 0.000508053: 1.034
  normalized signal at concentration 0.00152416: 0.8006
  normalized signal at concentration 0.00457247: 1.0648
  normalized signal at concentration 0.0137174: 1.106
  normalized signal at concentration 0.0411523: 1.032
  normalized signal at concentration 0.123457: 1.068
  normalized signal at concentration 0.37037: 0.8949
  normalized signal at concentration 1.11111: 0.9694
  normalized signal at concentration 3.33333: 1.103
[1]; Broad compounds, dose response
  IC50: > 10 µM
[1]; [5]
  normalized signal at concentration 10: 1.03
[1]; second series
  normalized signal at concentration 0.000508053: 1.064
  normalized signal at concentration 0.00152416: 1.02
  normalized signal at concentration 0.00457247: 1.098
  normalized signal at concentration 0.0137174: 0.9383
  normalized signal at concentration 0.0411523: 0.9903
  normalized signal at concentration 0.123457: 1.126
  normalized signal at concentration 0.37037: 1.0101
  normalized signal at concentration 1.11111: 1.172
  normalized signal at concentration 3.33333: 1.008
[1]
  PbLuc_max_inhibition (%): 20%
HepG2-A16-CD81EGFP cells
  IC50: > 10 µM
  Tox_max_inhibition (%): 16%

## C[C@@H]1CN([C@H](C)CO)C(=O)c2cc(N(C)C)ccc2O[C@@H](C)CCCCO[C@H]1CN(C)S(=O)(=O)c1ccc(F)cc1 [BRD-K72687327-001-01-6]
[1]; [4]
  normalized signal at concentration 10: 0.73
[1]; first series
  normalized signal at concentration 0.000508053: 1.09
  normalized signal at concentration 0.00152416: 1.10
  normalized signal at concentration 0.00457247: 0.91
  normalized signal at concentration 0.0137174: 1.11
  normalized signal at concentration 0.0411523: 0.89
  normalized signal at concentration 0.123457: 0.84
  normalized signal at concentration 0.37037: 0.92
  normalized signal at concentration 1.11111: 0.97
  normalized signal at concentration 3.33333: 1.01
[1]; Broad compounds, dose response
  IC50: > 10 µM
[1]; [5]
  normalized signal at concentration 10: 0.75
[1]; second series
  normalized signal at concentration 0.000508053: 0.96
  normalized signal at concentration 0.00152416: 1.08
  normalized signal at concentration 0.00457247: 0.94
  normalized signal at concentration 0.0137174: 1.05
  normalized signal at concentration 0.0411523: 1.15
  normalized signal at concentration 0.123457: 0.88
  normalized signal at concentration 0.37037: 1.15
  normalized signal at concentration 1.11111: 1.02
  normalized signal at concentration 3.33333: 1.11
[1]
  PbLuc_max_inhibition (%): 27%
HepG2-A16-CD81EGFP cells
  IC50: > 10 µM
  Tox_max_inhibition (%): 11%

## COc1ccc(NC(=O)N(C)C[C@H]2Oc3ccc(NC(=O)CCN4CCOCC4)cc3C(=O)N([C@H](C)CO)C[C@@H]2C)cc1 [BRD-K36853881-001-02-5]
[1]; [4]
  normalized signal at concentration 10: 0.82
[1]; first series
  normalized signal at concentration 0.000508053: 0.84
  normalized signal at concentration 0.00152416: 0.86
  normalized signal at concentration 0.00457247: 0.85
  normalized signal at concentration 0.0137174: 0.75
  normalized signal at concentration 0.0411523: 0.91
  normalized signal at concentration 0.123457: 0.88
  normalized signal at concentration 0.37037: 0.86
  normalized signal at concentration 1.11111: 0.92
  normalized signal at concentration 3.33333: 0.69
[1]; Broad compounds, dose response
  IC50: > 10 µM
[1]; [5]
  normalized signal at concentration 10: 0.77
[1]; second series
  normalized signal at concentration 0.000508053: 1.01
  normalized signal at concentration 0.00152416: 0.81
  normalized signal at concentration 0.00457247: 0.82
  normalized signal at concentration 0.0137174: 0.71
  normalized signal at concentration 0.0411523: 0.92
  normalized signal at concentration 0.123457: 0.81
  normalized signal at concentration 0.37037: 0.84
  normalized signal at concentration 1.11111: 0.84
  normalized signal at concentration 3.33333: 0.84
[1]
  PbLuc_max_inhibition (%): 31%
HepG2-A16-CD81EGFP cells
  IC50: > 10 µM
  Tox_max_inhibition (%): 9%

## COc1ccccc1NC(=O)N1C[C@@H]2N[C@H](C1)C2c1ccc(/C=C/c2ccccc2)cc1 (stereo partly drawn) [BRD-K72765192-019-01-4]
[1]; first series of columns
  normalized signal at concentration 0.000508053: 0.9244
  normalized signal at concentration 0.00152416: 0.9767
  normalized signal at concentration 0.00457247: 0.9222
  normalized signal at concentration 0.0137174: 1.063
  normalized signal at concentration 0.0411523: 0.9659
  normalized signal at concentration 0.123457: 0.9808
  normalized signal at concentration 0.37037: 1.083
  normalized signal at concentration 1.11111: 0.9875
  normalized signal at concentration 3.33333: 1.091
  normalized signal at concentration 10: 0.9372
[1]; [2]
  IC50: > 10 µM
[1]; [3]
  normalized signal at concentration 0.000508053: 0.82
  normalized signal at concentration 0.00152416: 0.9053
  normalized signal at concentration 0.00457247: 1.027
  normalized signal at concentration 0.0137174: 0.8721
  normalized signal at concentration 0.0411523: 0.9154
  normalized signal at concentration 0.123457: 0.911
  normalized signal at concentration 0.37037: 1.02
  normalized signal at concentration 1.11111: 0.9038
  normalized signal at concentration 3.33333: 0.8733
  normalized signal at concentration 10: 0.8146
[1]
  PbLuc_max_inhibition (%): 19%
HepG2-A16-CD81EGFP cells
  IC50: > 10 µM
  Tox_max_inhibition (%): 5.61%
